Results: ChEMBL document CHEMBL3885861, “Open TG-GATES”

Species: Rattus norvegicus
Assay: Open TG-GATES - Regimen: Daily Repeat
Type: toxicity, organism-based, Sprague-Dawley
Parameters: regimen Daily Repeat, gender Male, age 6 weeks
Conditions: in vivo, po, 20 mg/kg, route gavage, dose level Low; for APTT / Bas / Eos / Fbg / Hb / Ht / Lym / MCH / MCHC / MCV / Mono / Neu / PT / Plat / RBC / Ret / WBC: tissue Blood; for KIDNEY_L / KIDNEY_R / KIDNEY_TOTAL: tissue Kidney; for LIVER: tissue Liver; for A/G / ALP / ALT / AST / BUN / CRE / Ca / Cl / DBIL / GLC / IP / K / LDH / Na / PL / RALB / TBIL / TC / TG / TP / gamma-GTP: tissue Plasma

Compound: CC(CN1c2ccccc2Sc2ccccc21)N(C)C (configuration not stated) [PROMETHAZINE]
- TERMINAL_BW (72 h, time 3 day): 231 g
- APTT (72 h, time 3 day): 22 s
- Bas (72 h, time 3 day): 0%
- Eos (72 h, time 3 day): 1%
- Fbg (72 h, time 3 day): 314.4 mg/dL
- Hb (72 h, time 3 day): 13.3 g/dL
- Ht (72 h, time 3 day): 40.4%
- Lym (72 h, time 3 day): 77.2%
- MCH (72 h, time 3 day): 20.7 pg
- MCHC (72 h, time 3 day): 33.1%
- MCV (72 h, time 3 day): 62.7 fL
- Mono (72 h, time 3 day): 2.4%
- Neu (72 h, time 3 day): 18.6%
- PT (72 h, time 3 day): 16.2 s
- Plat (72 h, time 3 day): 125.4 x10_4/uL
- RBC (72 h, time 3 day): 644.6 x10_4/ul
- Ret (72 h, time 3 day): 6.8%
- WBC (72 h, time 3 day): 97.3 x10_2/uL
- KIDNEY_L (72 h, time 3 day): 1 g
- KIDNEY_R (72 h, time 3 day): 1.1 g
- KIDNEY_TOTAL (72 h, time 3 day): 2.1 g
- LIVER (72 h, time 3 day): 11.5 g
- A/G (72 h, time 3 day): 1.2
- ALP (72 h, time 3 day): 1570.4 IU/L
- ALT (72 h, time 3 day): 48.2 IU/L
- AST (72 h, time 3 day): 75.2 IU/L
- BUN (72 h, time 3 day): 17.2 mg/dL
- CRE (72 h, time 3 day): 0.2 mg/dL
- Ca (72 h, time 3 day): 10.8 mg/dL
- Cl (72 h, time 3 day): 105.4 meq/L
- DBIL (72 h, time 3 day): 0 mg/dL
- GLC (72 h, time 3 day): 184 mg/dL
- IP (72 h, time 3 day): 7.1 mg/dL
- K (72 h, time 3 day): 4.3 meq/L
- LDH (72 h, time 3 day): 166.4 IU/L
- Na (72 h, time 3 day): 142 meq/L
- PL (72 h, time 3 day): 155.2 mg/dL
- RALB (72 h, time 3 day): 3.1 g/dL
- TBIL (72 h, time 3 day): 0.004 mg/dL
- TC (72 h, time 3 day): 78.2 mg/dL
- TG (72 h, time 3 day): 118.4 mg/dL
- TP (72 h, time 3 day): 5.7 g/dL
- gamma-GTP (72 h, time 3 day): 2 IU/L
- TERMINAL_BW ([…], time 7 day): 261 g
- TERMINAL_BW ([…], time 14 day): 292.3 g
- TERMINAL_BW ([…], time 28 day): 387.7 g
- APTT ([…], time 7 day): 22.6 s
- Bas ([…], time 7 day): 0%
- Eos ([…], time 7 day): 0.8%
- Fbg ([…], time 7 day): 282.6 mg/dL
- Hb ([…], time 7 day): 13.4 g/dL
- Ht ([…], time 7 day): 40.4%
- Lym ([…], time 7 day): 84.4%
- MCH ([…], time 7 day): 20.5 pg
- MCHC ([…], time 7 day): 33.3%
- MCV ([…], time 7 day): 61.5 fL
- Mono ([…], time 7 day): 2.4%
- Neu ([…], time 7 day): 11.6%
- PT ([…], time 7 day): 16 s
- Plat ([…], time 7 day): 114.7 x10_4/uL
- RBC ([…], time 7 day): 657.4 x10_4/ul
- Ret ([…], time 7 day): 5.4%
- WBC ([…], time 7 day): 125.4 x10_2/uL
- APTT ([…], time 14 day): 23.8 s
- Bas ([…], time 14 day): 0%
- Eos ([…], time 14 day): 1%
- Fbg ([…], time 14 day): 315 mg/dL
- Hb ([…], time 14 day): 14.7 g/dL
- Ht ([…], time 14 day): 42.6%
- Lym ([…], time 14 day): 79.6%
- MCH ([…], time 14 day): 19.8 pg
- MCHC ([…], time 14 day): 34.4%
- MCV ([…], time 14 day): 57.6 fL
- Mono ([…], time 14 day): 2%
- Neu ([…], time 14 day): 16.6%
- PT ([…], time 14 day): 15.8 s
- Plat ([…], time 14 day): 112 x10_4/uL
- RBC ([…], time 14 day): 740.6 x10_4/ul
- Ret ([…], time 14 day): 4.2%
- WBC ([…], time 14 day): 109.3 x10_2/uL
- APTT ([…], time 28 day): 23.6 s
- Bas ([…], time 28 day): 0%
- Eos ([…], time 28 day): 1%
- Fbg ([…], time 28 day): 297.6 mg/dL
- Hb ([…], time 28 day): 15 g/dL
- Ht ([…], time 28 day): 43.5%
- Lym ([…], time 28 day): 79.2%
- MCH ([…], time 28 day): 19.1 pg
- MCHC ([…], time 28 day): 34.6%
- MCV ([…], time 28 day): 55.2 fL
- Mono ([…], time 28 day): 1.6%
- Neu ([…], time 28 day): 17.4%
- PT ([…], time 28 day): 16.3 s
- Plat ([…], time 28 day): 96.2 x10_4/uL
- RBC ([…], time 28 day): 787.8 x10_4/ul
- Ret ([…], time 28 day): 2.3%
- WBC ([…], time 28 day): 118.8 x10_2/uL
- KIDNEY_L ([…], time 7 day): 1.1 g
- KIDNEY_R ([…], time 7 day): 1.1 g
- KIDNEY_TOTAL ([…], time 7 day): 2.2 g
- KIDNEY_L ([…], time 14 day): 1.1 g
- KIDNEY_R ([…], time 14 day): 1.1 g
- KIDNEY_TOTAL ([…], time 14 day): 2.3 g
- KIDNEY_L ([…], time 28 day): 1.4 g
- KIDNEY_R ([…], time 28 day): 1.4 g
- KIDNEY_TOTAL ([…], time 28 day): 2.7 g
- LIVER ([…], time 7 day): 12.4 g
- LIVER ([…], time 14 day): 13.1 g
- LIVER ([…], time 28 day): 15.9 g
- A/G ([…], time 7 day): 1.3
- ALP ([…], time 7 day): 1595.8 IU/L
- ALT ([…], time 7 day): 46 IU/L
- AST ([…], time 7 day): 79.8 IU/L
- BUN ([…], time 7 day): 18.2 mg/dL
- CRE ([…], time 7 day): 0.2 mg/dL
- Ca ([…], time 7 day): 10.5 mg/dL
- Cl ([…], time 7 day): 106.4 meq/L
- DBIL ([…], time 7 day): 0 mg/dL
- GLC ([…], time 7 day): 185.2 mg/dL
- IP ([…], time 7 day): 6.7 mg/dL
- K ([…], time 7 day): 4.3 meq/L
- LDH ([…], time 7 day): 169.2 IU/L
- Na ([…], time 7 day): 141.6 meq/L
- PL ([…], time 7 day): 133 mg/dL
- RALB ([…], time 7 day): 3.1 g/dL
- TBIL ([…], time 7 day): 0.004 mg/dL
- TC ([…], time 7 day): 66.2 mg/dL
- TG ([…], time 7 day): 113.4 mg/dL
- TP ([…], time 7 day): 5.5 g/dL
- gamma-GTP ([…], time 7 day): 1.8 IU/L
- A/G ([…], time 14 day): 1.2
- ALP ([…], time 14 day): 1261.8 IU/L
- ALT ([…], time 14 day): 45.8 IU/L
- AST ([…], time 14 day): 71.4 IU/L
- BUN ([…], time 14 day): 18.6 mg/dL
- CRE ([…], time 14 day): 0.2 mg/dL
- Ca ([…], time 14 day): 10.6 mg/dL
- Cl ([…], time 14 day): 106 meq/L
- DBIL ([…], time 14 day): 0 mg/dL
- GLC ([…], time 14 day): 182.6 mg/dL
- IP ([…], time 14 day): 6.2 mg/dL
- K ([…], time 14 day): 4.1 meq/L
- LDH ([…], time 14 day): 128.4 IU/L
- Na ([…], time 14 day): 142.6 meq/L
- PL ([…], time 14 day): 146.6 mg/dL
- RALB ([…], time 14 day): 3.2 g/dL
- TBIL ([…], time 14 day): 0.004 mg/dL
- TC ([…], time 14 day): 71.6 mg/dL
- TG ([…], time 14 day): 116.6 mg/dL
- TP ([…], time 14 day): 5.8 g/dL
- gamma-GTP ([…], time 14 day): 2.6 IU/L
- A/G ([…], time 28 day): 1.1
- ALP ([…], time 28 day): 1046.2 IU/L
- ALT ([…], time 28 day): 48.6 IU/L
- AST ([…], time 28 day): 71.6 IU/L
- BUN ([…], time 28 day): 19.8 mg/dL
- CRE ([…], time 28 day): 0.2 mg/dL
- Ca ([…], time 28 day): 10.4 mg/dL
- Cl ([…], time 28 day): 106.4 meq/L
- DBIL ([…], time 28 day): 0 mg/dL
- GLC ([…], time 28 day): 184.6 mg/dL
- IP ([…], time 28 day): 5.9 mg/dL
- K ([…], time 28 day): 4 meq/L
- LDH ([…], time 28 day): 136 IU/L
- Na ([…], time 28 day): 143.2 meq/L
- PL ([…], time 28 day): 137.4 mg/dL
- RALB ([…], time 28 day): 3.1 g/dL
- TBIL ([…], time 28 day): 0.006 mg/dL
- TC ([…], time 28 day): 65.4 mg/dL
- TG ([…], time 28 day): 139.8 mg/dL
- TP ([…], time 28 day): 6 g/dL
- gamma-GTP ([…], time 28 day): 2 IU/L
